In US6524999B2, “Growth inhibitors against algae and moss” (Kagome Kabushiki Kaisha, priority 2000, dated 2003):

Tested on: algae (Chlamydomonas, Scenedesumus, Actinastrum, Ulothrix, Oscillatoria, Spirogyra, Pleurotaenium, Stichoccus and Chlorella)
Assay: Hydroponic Culture Test No. 1: algae disks immersed in test nutrient solutions, visual examination of algae growth
Format: cell-based, algae collected from hydroponic culture of tomato plants
Set-up: key: +: Algae growth was clearly observed; −: Algae growth was not observed
Details: 7 days, 250° C., continuous light 2500 lux
Protocol: Algae which grew in hydroponic culture of tomato plants inside a greenhouse provided with a hydroponic culture system were collected. A control nutrient solution was prepared by dissolving in 1 liter of water 0.625 g, 0.417 g, 0.042 g and 0.029 g respectively of Otsuka House Nos. 1, 2, 3 and 5 (tradenames of products by Otsuka Chemical Co., Ltd.) Identified in the collected algae were the following nine kinds: Chlamydomonas, Scenedesumus, Actinastrum, Ulothrix, Oscillatoria, Spirogyra, Pleurotaenium, Stichoccus and Chlorella.
The algae thus collected were filtered by using a filtering net with opening diameter of 53 μm. After the filtrate was buried inside the aforementioned control nutrient solution containing agar by 0.8 weight %, disks were cut out therefrom by means of a cork borer. Test nutrient solutions which were individually prepared by adding indoleacetic acid, 3-indole propionic acid or 3-(3-indolyl) butyric acid shown by Formula 1 at different concentrations to the control nutrient solution, and after these disks were immersed individually in these test nutrient solutions for 7 days at […] under a continuous illumination of light at 2500 lux, the growth of algae was visually examined.

In the case of `O=C(O)Cc1c[nH]c2ccccc12` [IAA, indoleacetic acid], the “growth of algae (visual)” value (Concentration 0.1 mg/liter) is reported as “+”, the “growth of algae (visual)” value (Concentration 0.5 mg/liter) is reported as “+” and the “growth of algae (visual)” value (Concentration 1 mg/liter) is reported as “+”. The “growth of algae (visual)” value (Concentration 5 mg/liter) was “+”, the “growth of algae (visual)” value (Concentration 10 mg/liter) was “+” and the “growth of algae (visual)” value (Concentration 25 mg/liter) was “+”. For the same molecule, the “growth of algae (visual)” value (Concentration 50 mg/liter) was “+”.

`O=C(O)CCc1c[nH]c2ccccc12` [IPA, 3-indole propionic acid] was tested, and the “growth of algae (visual)” value (Concentration 0.1 mg/liter) was “+”, the “growth of algae (visual)” value (Concentration 0.5 mg/liter) was “+” and the “growth of algae (visual)” value (Concentration 1 mg/liter) was “+”. The “growth of algae (visual)” value (Concentration 5 mg/liter) was “+”, the “growth of algae (visual)” value (Concentration 10 mg/liter) was “+” and the “growth of algae (visual)” value (Concentration 25 mg/liter) was “+”. For the same molecule, the “growth of algae (visual)” value (Concentration 50 mg/liter) was “+”.

For `CC(CC(=O)O)c1c[nH]c2ccccc12` (stereo not drawn) [IBA, 3-(3-indolyl) butyric acid], the “growth of algae (visual)” value (Concentration 0.1 mg/liter) was “+”, the “growth of algae (visual)” value (Concentration 0.5 mg/liter) was “+” and the “growth of algae (visual)” value (Concentration 1 mg/liter) was “+”. The “growth of algae (visual)” value (Concentration 5 mg/liter) was “+”, the “growth of algae (visual)” value (Concentration 10 mg/liter) was “−” and the “growth of algae (visual)” value (Concentration 25 mg/liter) was “−”. The “growth of algae (visual)” value (Concentration 50 mg/liter) was “−”.
